{"source": "PubChem BioAssay AID602166", "about": "(The Scripps Research Institute Molecular Screening Center, 2012)", "target": "Nuclear receptor coactivator 3 (Homo sapiens) (UniProt Q9Y6Q9)", "sequence (Q9Y6Q9 whole entry, looked up)": "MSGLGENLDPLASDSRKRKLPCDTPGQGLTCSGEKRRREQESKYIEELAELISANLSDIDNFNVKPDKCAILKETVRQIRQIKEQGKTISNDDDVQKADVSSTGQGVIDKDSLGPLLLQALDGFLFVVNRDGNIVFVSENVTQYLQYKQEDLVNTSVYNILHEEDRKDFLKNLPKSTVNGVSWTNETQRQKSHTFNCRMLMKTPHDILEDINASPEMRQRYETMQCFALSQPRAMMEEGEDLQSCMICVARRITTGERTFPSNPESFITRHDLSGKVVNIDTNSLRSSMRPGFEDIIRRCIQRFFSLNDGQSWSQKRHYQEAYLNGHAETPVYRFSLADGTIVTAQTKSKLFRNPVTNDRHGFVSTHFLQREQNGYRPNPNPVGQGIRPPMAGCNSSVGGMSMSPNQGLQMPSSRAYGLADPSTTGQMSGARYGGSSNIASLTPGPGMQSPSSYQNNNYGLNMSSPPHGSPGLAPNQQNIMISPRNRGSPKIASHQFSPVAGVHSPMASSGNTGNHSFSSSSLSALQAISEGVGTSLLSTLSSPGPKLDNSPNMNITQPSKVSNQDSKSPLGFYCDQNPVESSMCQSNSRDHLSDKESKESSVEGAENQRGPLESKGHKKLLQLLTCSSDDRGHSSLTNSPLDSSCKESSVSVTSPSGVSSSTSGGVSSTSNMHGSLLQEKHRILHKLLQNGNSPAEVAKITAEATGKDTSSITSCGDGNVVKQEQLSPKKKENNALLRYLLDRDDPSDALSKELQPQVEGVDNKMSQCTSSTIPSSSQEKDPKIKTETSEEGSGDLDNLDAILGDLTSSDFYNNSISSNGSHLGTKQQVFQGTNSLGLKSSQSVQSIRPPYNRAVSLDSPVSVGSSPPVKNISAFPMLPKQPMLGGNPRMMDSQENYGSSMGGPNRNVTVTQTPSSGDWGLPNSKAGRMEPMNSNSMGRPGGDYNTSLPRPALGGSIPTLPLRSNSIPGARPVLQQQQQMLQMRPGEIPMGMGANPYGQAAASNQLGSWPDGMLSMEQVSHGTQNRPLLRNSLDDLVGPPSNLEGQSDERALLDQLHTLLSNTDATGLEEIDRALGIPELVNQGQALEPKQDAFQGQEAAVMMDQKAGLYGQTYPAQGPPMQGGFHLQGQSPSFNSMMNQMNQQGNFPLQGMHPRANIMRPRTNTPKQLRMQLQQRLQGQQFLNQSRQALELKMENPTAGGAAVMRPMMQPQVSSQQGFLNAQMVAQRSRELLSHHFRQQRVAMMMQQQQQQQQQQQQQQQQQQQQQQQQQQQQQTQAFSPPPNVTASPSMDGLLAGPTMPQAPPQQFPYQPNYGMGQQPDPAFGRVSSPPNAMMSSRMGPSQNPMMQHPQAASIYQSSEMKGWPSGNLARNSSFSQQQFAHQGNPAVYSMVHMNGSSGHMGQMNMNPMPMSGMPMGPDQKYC", "assay": "SRC3 coactivator transcriptional activity inhibitors, dose response, cell-based, luminescence (AID 602166);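 further: potency for reduction of SRC3 reporter signal so compounds are inhibitors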", "settings": "SRC3 luciferase reporter cell assay", "note": "Active and inactive are the calls of the source. How the calls were made is not given here."}
{"compound": "CCOC(=O)C(C(C)=O)c1c(Br)c(O)c(O)c2c(C(=O)c3ccc(C)cc3)coc12", "note": "(centres undefined)", "values": [{"measurement": "IC50", "value": 4.11, "unit": "µM"}]}
{"compound": "CCOc1ccc(-c2cc(C)n3nc(C(N)=O)cc3n2)cc1", "values": [{"measurement": "IC50", "value": 7.81, "unit": "µM"}]}
{"compound": "COc1ccc(-n2cnc3c(sc4nccc(N(C)C)c43)c2=O)cc1", "values": [{"measurement": "IC50", "value": 8.19, "unit": "µM"}]}
{"compound": "Cc1cccc2sc(NNC(=O)c3ccc(S(=O)(=O)N4CC(C)CC(C)C4)cc3)nc12", "note": "(centres undefined)", "values": [{"measurement": "IC50", "value": 5.91, "unit": "µM"}]}
{"compound": "Cc1ccc2occ(/C=N/NC(=O)c3ccccc3Br)c(=O)c2c1", "values": [{"measurement": "IC50", "value": "inactive"}]}
{"compound": "COc1ccc(/C=C2\\CN(Cc3ccccc3)C/C(=C\\c3ccc(OC)c(O)c3)C2=O)cc1O", "values": [{"measurement": "IC50", "value": "> 35.9 µM (inactive)"}]}
{"compound": "COc1cc(/C=N/NC(=Nc2ccc(C)cc2)c2nc3ccccc3s2)ccc1O", "values": [{"measurement": "IC50", "value": "> 35.9 µM (inactive)"}]}
{"compound": "CC(=O)Nc1ccc(SCC(=O)c2cc(C)n(-c3ccccc3)c2C)cc1", "values": [{"measurement": "IC50", "value": "> 35.9 µM (inactive)"}]}
{"compound": "Nc1ccc(-c2cc3ccccc3oc2=O)cc1", "values": [{"measurement": "IC50", "value": 8.26, "unit": "µM"}]}
{"compound": "CCc1nc(N)nc(N)c1-c1ccc(Cl)c([N+](=O)[O-])c1", "values": [{"measurement": "IC50", "value": 4.28, "unit": "µM"}]}
{"compound": "CN1C(=O)C2(C(C#N)=C(N)N(c3cc(Cl)cc(Cl)c3)C3=C2C(=O)CCC3)c2ccccc21", "note": "(centres undefined)", "values": [{"measurement": "IC50", "value": 2.63, "unit": "µM"}]}
{"compound": "Cc1ccc(/C=C2\\SC(=S)N(CCCC(=O)NC3CCCC3)C2=O)cc1", "values": [{"measurement": "IC50", "value": 1.76, "unit": "µM"}]}
{"compound": "Cc1cccc(CN2CCN(C(=O)CCl)CC2)c1", "values": [{"measurement": "IC50", "value": "> 35.9 µM (inactive)"}]}
{"compound": "c1ccc(-c2noc(-c3ccc4ccccc4c3)n2)nc1", "values": [{"measurement": "IC50", "value": 8.62, "unit": "µM"}]}
{"compound": "O=C(NC(NC(=S)N1CCOCC1)C(Cl)(Cl)Cl)c1ccc(Cl)cc1", "note": "(centres undefined)", "values": [{"measurement": "IC50", "value": "> 35.9 µM (inactive)"}]}
{"compound": "COc1ccc(C(C(=O)NC2CCCCC2)N(C(=O)CCl)c2ccc(Cl)cc2)cc1", "note": "(centres undefined)", "values": [{"measurement": "IC50", "value": 3.7, "unit": "µM"}]}
{"compound": "O=c1[nH]c(O)c(N=Nc2ccc3c(c2)OCCO3)c(=O)[nH]1", "values": [{"measurement": "IC50", "value": "> 35.9 µM (inactive)"}]}
{"compound": "CCOC(=O)CC(=O)CSc1nccc(-c2cccnc2)n1", "values": [{"measurement": "IC50", "value": "inactive"}]}
{"compound": "O=C(CC(Nc1ccc(Cl)cc1Cl)C(=O)O)c1ccccc1", "note": "(centres undefined)", "values": [{"measurement": "IC50", "value": "> 35.9 µM (inactive)"}]}
{"compound": "CN(Cc1cnc2nc(N)nc(N)c2n1)c1ccc(C(=O)N[C@@H](CCC(=O)O)C(=O)O)cc1", "values": [{"measurement": "IC50", "value": "> 35.9 µM (inactive)"}]}
{"compound": "COc1ccc(-c2cn[nH]c2-c2ccc(OC)cc2O)cc1", "values": [{"measurement": "IC50", "value": 2.89, "unit": "µM"}]}
{"compound": "CCCc1c(C)nc2ccccc2c1SCCC#N", "values": [{"measurement": "IC50", "value": 7.93, "unit": "µM"}]}
{"compound": "COc1ccc(/C=C2/SC(=S)N(CCC(=O)O)C2=O)cc1", "values": [{"measurement": "IC50", "value": "> 35.9 µM (inactive)"}]}
{"compound": "Nc1ncnc(NCc2ccccc2)c1[N+](=O)[O-]", "values": [{"measurement": "IC50", "value": 5.6, "unit": "µM"}]}
{"compound": "Fc1ccc(CSc2nnc(-c3ccncc3)o2)cc1", "values": [{"measurement": "IC50", "value": 2.44, "unit": "µM"}]}
{"compound": "Cc1ccc(C(=O)Nc2cnc3ccccc3c2)cc1", "values": [{"measurement": "IC50", "value": "inactive"}]}
{"compound": "CCc1ccc(-c2nc(CSCC(=O)NCc3ccco3)c(C)o2)cc1", "values": [{"measurement": "IC50", "value": "> 35.9 µM (inactive)"}]}
{"compound": "Cc1ccc(N=c2c([N+](=O)[O-])nn(-c3ccc4c(c3)OCCO4)n2O)cc1F", "values": [{"measurement": "IC50", "value": 8.48, "unit": "µM"}]}
{"compound": "O=C(CCl)Nc1cccc(-c2cnc3ccccc3n2)c1", "values": [{"measurement": "IC50", "value": "inactive"}]}
{"compound": "O=C(CCl)N(c1ccccc1)C1CCS(=O)(=O)C1", "note": "(centres undefined)", "values": [{"measurement": "IC50", "value": 6.92, "unit": "µM"}]}
{"compound": "CC(C)(C)n1ncc2c(=O)n(CC(=O)OCc3ccccc3)cnc21", "values": [{"measurement": "IC50", "value": "> 35.9 µM (inactive)"}]}
{"compound": "Nc1nc(CCl)nc(Nc2cccc3ccccc23)n1", "values": [{"measurement": "IC50", "value": "inactive"}]}
{"compound": "CC(C)(C)C(=O)Nc1ccc(N=Nc2ccccc2)cc1", "values": [{"measurement": "IC50", "value": "> 35.9 µM (inactive)"}]}
{"compound": "CCCCC(=O)NC(c1ccc(Cl)cc1Cl)c1ccc2cccnc2c1O", "note": "(centres undefined)", "values": [{"measurement": "IC50", "value": 4.71, "unit": "µM"}]}
{"compound": "CCOc1ccc(/C=C2\\SC(=S)N(CCC(=O)O)C2=O)cc1", "values": [{"measurement": "IC50", "value": "> 35.9 µM (inactive)"}]}
{"compound": "COC(=O)c1cccc2c1-c1ccccc1/C2=N/O", "values": [{"measurement": "IC50", "value": 2.35, "unit": "µM"}]}
{"compound": "CN1CCN(c2ccc(NC(=O)N3CCc4ccccc43)cc2)CC1", "values": [{"measurement": "IC50", "value": "> 35.9 µM (inactive)"}]}
{"compound": "COc1cc([C@@H]2c3cc4c(cc3[C@@H](O[C@@H]3O[C@@H]5CO[C@@H](C)O[C@H]5[C@H](O)[C@H]3O)[C@H]3COC(=O)[C@H]23)OCO4)cc(OC)c1O", "values": [{"measurement": "IC50", "value": 2.48, "unit": "µM"}]}
{"compound": "Cc1nc([N+](=O)[O-])c(Sc2nc3ccccc3n2C)n1Cc1ccccc1", "values": [{"measurement": "IC50", "value": "inactive"}]}
{"compound": "Cc1ccc(OCC(=O)c2cc(C)n(-c3ccccc3)c2C)c([N+](=O)[O-])n1", "values": [{"measurement": "IC50", "value": "inactive"}]}
{"compound": "CCc1ccc(/C=C2\\SC(=S)N(CCCC(=O)NCCCN3CCOCC3)C2=O)cc1", "values": [{"measurement": "IC50", "value": "inactive"}]}
{"compound": "O=[N+]([O-])c1cccc2c1ccc1ncccc12", "values": [{"measurement": "IC50", "value": 8.07, "unit": "µM"}]}
{"compound": "C#CC(=O)N(c1cc(OC)ccc1OC)C(C(=O)NC1CCCC1)c1cccs1", "note": "(centres undefined)", "values": [{"measurement": "IC50", "value": "> 35.9 µM (inactive)"}]}
{"compound": "CCCNC(=O)c1nnsc1S(=O)(=O)c1ccc(Cl)cc1", "values": [{"measurement": "IC50", "value": 8.04, "unit": "µM"}]}
{"compound": "Cc1ccc(N=Nc2ccc3ccccc3c2O)cc1", "values": [{"measurement": "IC50", "value": "> 35.9 µM (inactive)"}]}
{"compound": "Cc1cccc(C)c1NS(=O)(=O)c1ccc(-c2cnc(C3CC3)o2)cc1", "values": [{"measurement": "IC50", "value": "inactive"}]}
{"compound": "O=c1[nH]c2ccccc2n1C1CCN(C(c2ccccc2)c2nnnn2-c2ccc3c(c2)OCCO3)CC1", "note": "(centres undefined)", "values": [{"measurement": "IC50", "value": "inactive"}]}
{"compound": "CC(=O)Nc1ccc(SCC(=O)c2cc(C)n(-c3ccccc3F)c2C)cc1", "values": [{"measurement": "IC50", "value": "> 35.9 µM (inactive)"}]}
{"compound": "COC(=O)c1c(C)n(-c2ccc(OC)cc2)c2ccc(O)cc12", "values": [{"measurement": "IC50", "value": 3.99, "unit": "µM"}]}
{"compound": "CN(C)S(=O)(=O)c1ccc(N2CCN(S(=O)(=O)c3ccc(F)cc3)CC2)c(Cl)c1", "values": [{"measurement": "IC50", "value": 7.88, "unit": "µM"}]}
{"compound": "Nc1ncccc1C(=O)OCC(=O)N1CCN(S(=O)(=O)c2ccc(Cl)cc2)CC1", "values": [{"measurement": "IC50", "value": 7.74, "unit": "µM"}]}
{"compound": "C=CC[n+]1c(-c2ccc(C)cc2)csc1Nc1ccc(NC(C)=O)cc1", "values": [{"measurement": "IC50", "value": "> 35.9 µM (inactive)"}]}
{"compound": "CCCCN1C=CC(=C2C(=O)c3ccccc3C2=O)C=C1", "values": [{"measurement": "IC50", "value": 4.47, "unit": "µM"}]}
{"compound": "COc1cc2c(cc1OC)C(C)N(C(=O)c1cccc([N+](=O)[O-])c1)CC2", "note": "(centres undefined)", "values": [{"measurement": "IC50", "value": 7.21, "unit": "µM"}]}
{"compound": "COc1cc(/C=C(/C(=O)c2cccs2)c2nc3ccccc3[nH]2)cc(OC)c1O", "values": [{"measurement": "IC50", "value": "> 35.9 µM (inactive)"}]}
{"compound": "Cc1cc(C(=O)COC(=O)C2=COCCO2)c(C)n1-c1ccccc1", "values": [{"measurement": "IC50", "value": "> 35.9 µM (inactive)"}]}
{"compound": "COc1ccc(/C=C2\\CC/C(=C\\c3ccc(OC)c(OC)c3)C2=O)cc1OC", "values": [{"measurement": "IC50", "value": 6.33, "unit": "µM"}]}
{"compound": "O=C(Nc1ccc(OCC(=O)N2CCOCC2)cc1)c1cncc(Br)c1", "values": [{"measurement": "IC50", "value": 4.43, "unit": "µM"}]}
{"compound": "N#Cc1c2ccc(O)cc2n2ccccc12", "values": [{"measurement": "IC50", "value": 3.41, "unit": "µM"}]}
{"compound": "CC1CCN(C2=NC(=O)/C(=C/c3ccccc3F)S2)CC1", "values": [{"measurement": "IC50", "value": "> 35.9 µM (inactive)"}]}
{"compound": "Cc1cc(-c2nnc(SCC(=O)Nc3ccccc3C(F)(F)F)o2)c(C)n1-c1ccccc1", "values": [{"measurement": "IC50", "value": "> 35.9 µM (inactive)"}]}
{"compound": "CCC(=O)c1ccc(O)c(CC=C(C)C)c1", "values": [{"measurement": "IC50", "value": 8.77, "unit": "µM"}]}
{"compound": "O=[N+]([O-])c1nn(-c2ccc3c(c2)OCCO3)n(O)c1=Nc1ccccc1", "values": [{"measurement": "IC50", "value": 1.08, "unit": "µM"}]}
{"compound": "O=C(CCCc1nc(-c2ccccc2Cl)no1)NC1CCCC1", "values": [{"measurement": "IC50", "value": 8.14, "unit": "µM"}]}
{"compound": "CCOc1ccc(Nc2cc(C)nc(-n3nc(C)cc3C)n2)cc1", "values": [{"measurement": "IC50", "value": "> 35.9 µM (inactive)"}]}
{"compound": "CCOc1ccc(CC(=O)Nc2ccc(NC(=O)c3ccco3)cc2)cc1OCC", "values": [{"measurement": "IC50", "value": 4.24, "unit": "µM"}]}
{"compound": "CC(=O)c1ccc(Nc2c3c(nc4ccccc24)CCCC3)cc1", "values": [{"measurement": "IC50", "value": "inactive"}]}
{"compound": "O=C(CC1CS(=O)(=O)CC1CC(=O)Nc1ccc2c(c1)OCCO2)Nc1ccc2c(c1)OCCO2", "note": "(centres undefined)", "values": [{"measurement": "IC50", "value": "> 35.9 µM (inactive)"}]}
{"compound": "O=C(CCl)N(c1ccccc1)C1CCCCC1", "values": [{"measurement": "IC50", "value": 8.7, "unit": "µM"}]}
